Assay results as given in US8378104B2 (OSI Pharmaceuticals, LLC, priority 2010, dated 2013).
Where a name gives a salt, the structure may show the parent alone. Read-outs that look alike come from different tables or passages of the source.

Legend:
TAK1-TAB1 fusion protein = target: T1, TAK1-TAB1 fusion protein (Homo sapiens, UniProt O43318); test: TAK1 biochemical assay (AlphaScreen, GST-MAP2K7 substrate)
T1 construct: purchased Carna
T1 sequence (O43318 with tags, fused parts or gaps limits assumed): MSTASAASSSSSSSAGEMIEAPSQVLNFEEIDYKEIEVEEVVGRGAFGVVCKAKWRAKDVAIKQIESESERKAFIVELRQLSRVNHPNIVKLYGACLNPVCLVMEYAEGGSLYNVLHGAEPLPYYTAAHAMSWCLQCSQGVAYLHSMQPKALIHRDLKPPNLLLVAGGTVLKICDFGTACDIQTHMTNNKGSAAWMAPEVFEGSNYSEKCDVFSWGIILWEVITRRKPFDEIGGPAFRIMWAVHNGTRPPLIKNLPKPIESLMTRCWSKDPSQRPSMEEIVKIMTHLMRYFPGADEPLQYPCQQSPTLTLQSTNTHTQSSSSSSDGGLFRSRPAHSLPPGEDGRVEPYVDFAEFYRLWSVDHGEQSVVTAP

pJNK in HCT-116 cells = test: Phospho-JNK (Thr183/Tyr185) Meso Scale ELISA assay, TNFα-stimulated HCT-116 cells; format: cell-based; conditions: Homo sapiens, read-out: mean HCT-116 pJNK ELISA IC50 (Col. B)
Summary of the method: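 Meso Scale ELISA read of phospho-JNK (Thr183/Tyr185) in lysed HCT-116 cells. Cells were serum-reduced to 1% FCS for 2 hours, exposed to test drug for 4 hrs at 37° C, then given 10 ng/mL TNFα (final) for 10 minutes before lysis.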

p-p38 in HCT-116 cells = test: Phospho-p38 Meso Scale ELISA assay, TNFα-stimulated HCT-116 cells; format: cell-based; conditions: Homo sapiens, read-out: mean HCT-116 p-p38 ELISA IC50 (Col. C)
Summary of the method: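 Phospho-p38 measured by Meso Scale ELISA on diluted lysates, captured overnight at 4° C. Before lysis, HCT-116 cells were serum-reduced (1% FCS, 2 h), treated with compounds 4 h at 37° C and stimulated 10 min with 10 ng/mL TNFα final.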

[1] = TAK1-TAB1 fusion protein, GST-MAP2K7 substrate, read-out: mean TAK1 IC50 (Col. A)

CNc1ncc(-c2cnn(C3CCN(C(C)=O)CC3)c2)c2cc(-c3c[nH]c4cnccc34)oc12 [Example 280, 1-(4-{4-[7-(methylamino)-2-(1H-pyrrolo[2,3-c]pyridin-3-yl)furo[2,3-c]pyridin-4-yl]-1H-pyrazol-1-yl}piperidin-1-yl)ethanone trifluoroacetic acid salt]
IC50 (TAK1-TAB1 fusion protein; [1]): < 0.1 µM
IC50 (pJNK in HCT-116 cells): 1 to 10 µM
IC50 (p-p38 in HCT-116 cells): 0.1 to 1 µM

CNc1ncc(-c2cnn([C@H]3CC[C@H](O)CC3)c2)c2cc(-c3csc4cnccc34)oc12 [Example 281, trans-4-{4-[7-(methylamino)-2-(thieno[2,3-c]pyridin-3-yl)furo[2,3-c]pyridin-4-yl]-1H-pyrazol-1-yl}cyclohexanol]
IC50 (TAK1-TAB1 fusion protein; [1]): < 0.1 µM
IC50 (pJNK in HCT-116 cells): < 0.1 µM
IC50 (p-p38 in HCT-116 cells): < 0.1 µM

Cc1nn(CC(C)(C)O)cc1-c1cnc(N)c2oc(-c3csc4cnccc34)cc12 [Example 289, 1-[4-(7-amino-2-thieno[2,3-c]pyridin-3-yl-furo[2,3-c]pyridin-4-yl)-3-methyl-pyrazol-1-yl]-2-methyl-propan-2-ol]
IC50 (TAK1-TAB1 fusion protein; [1]): 1 to 10 µM
IC50 (pJNK in HCT-116 cells): 0.1 to 1 µM
IC50 (p-p38 in HCT-116 cells): 1 to 10 µM

Cn1cc(-c2cnc(N)c3oc(-c4csc5cnccc45)cc23)cn1 [Example 290, 4-(1-methyl-1H-pyrazol-4-yl)-2-thieno[2,3-c]pyridin-3-yl-furo[2,3-c]pyridin-7-ylamine]
IC50 (TAK1-TAB1 fusion protein): 0.1 to 1 µM
IC50 (pJNK in HCT-116 cells): 0.1 to 1 µM
IC50 (p-p38 in HCT-116 cells): 0.1 to 1 µM

Nc1ncc(-c2cnn(C3CC4(C3)OCCO4)c2)c2cc(-c3csc4cnccc34)oc12 [Example 291, 4-[1-(5,8-dioxa-spiro[3.4]oct-2-yl)-1H-pyrazol-4-yl]-2-thieno[2,3-c]pyridin-3-yl-furo[2,3-c]pyridin-7-ylamine]
IC50 (TAK1-TAB1 fusion protein; [1]): < 0.1 µM
IC50 (pJNK in HCT-116 cells): 0.1 to 1 µM
IC50 (p-p38 in HCT-116 cells): 0.1 to 1 µM

Cc1nn(C)cc1-c1cnc(N)c2oc(-c3csc4cnccc34)cc12 [Example 293, 4-(1,3-dimethyl-1H-pyrazol-4-yl)-2-thieno[2,3-c]pyridin-3-yl-furo[2,3-c]pyridin-7-ylamine]
IC50 (TAK1-TAB1 fusion protein): 1 to 10 µM
IC50 (pJNK in HCT-116 cells): 0.1 to 1 µM
IC50 (p-p38 in HCT-116 cells): 1 to 10 µM

CC1(C)OC[C@@H](Cn2cc(-c3cnc(N)c4oc(-c5csc6cnccc56)cc34)cn2)O1 [Example 297, 4-[1-((R)-2,2-dimethyl-[1,3]dioxolan-4-ylmethyl)-1H-pyrazol-4-yl]-2-thieno[2,3-c]pyridin-3-yl-furo[2,3-c]pyridin-7-ylamine]
IC50 (TAK1-TAB1 fusion protein; [1]): 0.1 to 1 µM
IC50 (pJNK in HCT-116 cells): 0.1 to 1 µM
IC50 (p-p38 in HCT-116 cells): 1 to 10 µM

CC(C)(C)OC(=O)N1CCC(n2cc(-c3cnc(N)c4oc(-c5csc6cnccc56)cc34)cn2)CC1 [Example 300, 4-[4-(7-amino-2-thieno[2,3-c]pyridin-3-yl-furo[2,3-c]pyridin-4-yl)-pyrazol-1-yl]piperidine-1-carboxylic acid tert-butyl ester]
IC50 (TAK1-TAB1 fusion protein; [1]): 0.1 to 1 µM
IC50 (pJNK in HCT-116 cells): 0.1 to 1 µM
IC50 (p-p38 in HCT-116 cells): 0.1 to 1 µM

CC(C)(C)OC(=O)N1CCC(n2cc(-c3cnc(N)c4oc(-c5cccc6cnsc56)cc34)cn2)CC1 [Example 302, 4-[4-(7-amino-2-benzo[d]isothiazol-7-yl-furo[2,3-c]pyridin-4-yl)-pyrazol-1-yl]-piperidine-1-carboxylic acid tert-butyl ester]
IC50 (TAK1-TAB1 fusion protein; [1]): 0.1 to 1 µM
IC50 (pJNK in HCT-116 cells): 0.1 to 1 µM
IC50 (p-p38 in HCT-116 cells): 1 to 10 µM

COc1nn([C@H]2CC[C@@H](O)CC2)cc1-c1cnc(N)c2oc(-c3csc4cnccc34)cc12 [Example 303, 4-[4-(7-amino-2-thieno[2,3-c]pyridin-3-yl-furo[2,3-c]pyridin-4-yl)-3-methoxy-pyrazol-1-yl]-cyclohexanol]
IC50 (TAK1-TAB1 fusion protein; [1]): 0.1 to 1 µM
IC50 (pJNK in HCT-116 cells): 0.1 to 1 µM
IC50 (p-p38 in HCT-116 cells): 1 to 10 µM

Nc1ncc(-c2cnn([C@@H]3C[C@@H](O)[C@@H](O)C3)c2)c2cc(-c3csc4cnccc34)oc12 [Example 311, rel-(1R,2S,4S)-4-[4-(7-amino-2-thieno[2,3-c]pyridin-3-yl-furo[2,3-c]pyridin-4-yl)-pyrazol-1-yl]-cyclopentane-1,2-diol]
IC50 (TAK1-TAB1 fusion protein; [1]): < 0.1 µM
IC50 (pJNK in HCT-116 cells): 0.1 to 1 µM
IC50 (p-p38 in HCT-116 cells): 0.1 to 1 µM

Nc1ncc(-c2cnn(C3CNC3)c2)c2cc(-c3csc4cnccc34)oc12 [Example 314, 4-(1-azetidin-3-yl-1H-pyrazol-4-yl)-2-thieno[2,3-c]pyridin-3-yl-furo[2,3-c]pyridin-7-ylamine]
IC50 (TAK1-TAB1 fusion protein; [1]): < 0.1 µM
IC50 (pJNK in HCT-116 cells): 1 to 10 µM
IC50 (p-p38 in HCT-116 cells): 0.1 to 1 µM

Nc1ncc(-c2cnn(C3CC(=O)C3)c2)c2cc(-c3csc4cnccc34)oc12 [Example 315, 3-[4-(7-amino-2-thieno[2,3-c]pyridin-3-yl-furo[2,3-c]pyridin-4-yl)-pyrazol-1-yl]-cyclobutanone]
IC50 (TAK1-TAB1 fusion protein; [1]): 0.1 to 1 µM
IC50 (pJNK in HCT-116 cells): 0.1 to 1 µM
IC50 (p-p38 in HCT-116 cells): 0.1 to 1 µM

CC(=O)N1CC(n2cc(-c3cnc(N)c4oc(-c5csc6cnccc56)cc34)cn2)C1 [Example 316, 1-{3-[4-(7-amino-2-thieno[2,3-c]pyridin-3-yl-furo[2,3-c]pyridin-4-yl)-pyrazol-1-yl]-azetidin-1-yl}-ethanone]
IC50 (TAK1-TAB1 fusion protein; [1]): < 0.1 µM
IC50 (pJNK in HCT-116 cells): 0.1 to 1 µM
IC50 (p-p38 in HCT-116 cells): 0.1 to 1 µM

Nc1ncc(-c2cnn(C[C@@H](O)CO)c2)c2cc(-c3csc4cnccc34)oc12 [Example 317, (R)-3-[4-(7-amino-2-thieno[2,3-c]pyridin-3-yl-furo[2,3-c]pyridin-4-yl)-pyrazol-1-yl]-propane-1,2-diol]
IC50 (TAK1-TAB1 fusion protein; [1]): < 0.1 µM
IC50 (pJNK in HCT-116 cells): 1 to 10 µM
IC50 (p-p38 in HCT-116 cells): 1 to 10 µM

Nc1ncc(-c2cnn(C3CCNCC3)c2)c2cc(-c3csc4cnccc34)oc12 [Example 322, 4-(1-piperidin-4-yl-1H-pyrazol-4-yl)-2-thieno[2,3-c]pyridin-3-yl-furo[2,3-c]pyridin-7-ylamine]
IC50 (TAK1-TAB1 fusion protein; [1]): < 0.1 µM
IC50 (pJNK in HCT-116 cells): 0.1 to 1 µM
IC50 (p-p38 in HCT-116 cells): 0.1 to 1 µM

Nc1ncc(-c2cnn(C3CCNCC3)c2)c2cc(-c3cccc4cnsc34)oc12 [Example 323, 2-benzo[d]isothiazol-7-yl-4-(1-piperidin-4-yl-1H-pyrazol-4-yl)-furo[2,3-c]pyridin-7-ylamine]
IC50 (TAK1-TAB1 fusion protein; [1]): < 0.1 µM
IC50 (pJNK in HCT-116 cells): 1 to 10 µM
IC50 (p-p38 in HCT-116 cells): 0.1 to 1 µM

Nc1ncc(-c2cc[nH]c2)c2cc(-c3csc4cnccc34)oc12 [Example 376, 4-(1H-pyrrol-3-yl)-2-thieno[2,3-c]pyridin-3-yl-furo[2,3-c]pyridin-7-ylamine]
IC50 (TAK1-TAB1 fusion protein; [1]): 1 to 10 µM
IC50 (pJNK in HCT-116 cells): 0.1 to 1 µM
IC50 (p-p38 in HCT-116 cells): 1 to 10 µM

Cc1nn(CC(O)CO)c(C)c1-c1cnc(N)c2oc(-c3cccc4cnccc34)cc12 (stereo not drawn) [Example 400, 3-{4-[7-amino-2-(isoquinolin-5-yl)furo[2,3-c]pyridin-4-yl]-3,5-dimethyl-1H-pyrazol-1-yl}propane-1,2-diol]
IC50 (TAK1-TAB1 fusion protein; [1]): > 10 µM
IC50 (pJNK in HCT-116 cells): 1 to 10 µM
IC50 (p-p38 in HCT-116 cells): 1 to 10 µM

Nc1ncc(-c2cnn([C@H]3CC[C@H](O)CC3)c2)c2cc(-c3ccc4[nH]ncc4c3)oc12 [Example 402, trans-4-{4-[7-amino-2-(1H-indazol-5-yl)furo[2,3-c]pyridin-4-yl]-1H-pyrazol-1-yl}cyclohexanol]
IC50 (TAK1-TAB1 fusion protein; [1]): 0.1 to 1 µM
IC50 (pJNK in HCT-116 cells): 0.1 to 1 µM
IC50 (p-p38 in HCT-116 cells): 1 to 10 µM

CC(=O)N1CCC(n2cc(-c3cnc(N)c4oc(-c5ccccc5C)cc34)cn2)CC1 [Example 410, 1-(4-{4-[7-amino-2-(2-methylphenyl)furo[2,3-c]pyridin-4-yl]-1H-pyrazol-1-yl}piperidin-1-yl)ethanone]
IC50 (TAK1-TAB1 fusion protein; [1]): 0.1 to 1 µM
IC50 (pJNK in HCT-116 cells): 0.1 to 1 µM
IC50 (p-p38 in HCT-116 cells): 1 to 10 µM
